Experimental data reported in patent US11707440B2 (priority 2017, dated 2023).
Like-named read-outs stand apart in the source and are kept apart here.

Tested on: subjects with MDD at imminent risk for suicide
[1] = TEAE leading to study discontinuation, double-blind phase, safety analysis set
[2] = adverse events, follow up phase, safety (FU) analysis set
[3] = double-blind phase, safety analysis set
[4] = serious adverse events, follow up phase, safety (FU) analysis set
[5] = treatment-emergent serious adverse events, double-blind phase, safety analysis set

Question: `CN[C@]1(c2ccccc2Cl)CCCCC1=O` [Esketamine 84 mg] was tested. Which Dizziness [1] did it give?
Answer: 1 (2.9%) no. subjects (%)

Question: What about the Dysgeusia [1] of the same compound?
Answer: 1 (2.9%) no. subjects (%)

Question: And the Dyspnea [1]?
Answer: 1 (2.9%) no. subjects (%)

Question: And the Gastrointestinal disorders [1]?
Answer: 1 (2.9%) no. subjects (%)

Question: What about the Nausea [1] of the same compound?
Answer: 1 (2.9%) no. subjects (%)

Question: What about the Nervous system disorders [1] of the same compound?
Answer: 2 (5.7%) no. subjects (%)

Question: What about the Panic attack [1] of the same compound?
Answer: 0 no. subjects (%)

Question: And the Psychiatric disorders [1]?
Answer: 2 (5.7%) no. subjects (%)

Question: And the “Respiratory, thoracic and mediastinal disorders” value [1]?
Answer: 1 (2.9%) no. subjects (%)

Question: What about the “Total no. subjects with TEAE leading to study discontinuation” value [1] of the same compound?
Answer: 5 (14.3%) no. subjects (%)

Question: And the Ventricular extrasystoles [1]?
Answer: 1 (2.9%) no. subjects (%)

Question: What about the Abdominal pain [2] of the same compound?
Answer: 1 (3.7%) no. subjects (%)

Question: And the Abdominal tenderness [2]?
Answer: 1 (3.7%) no. subjects (%)

Question: What about the Aphthous ulcer [2] of the same compound?
Answer: 0 no. subjects (%)

Question: And the Back pain [2]?
Answer: 1 (3.7%) no. subjects (%)

Question: And the Bronchitis [2]?
Answer: 0 no. subjects (%)

Question: And the Cellulitis [2]?
Answer: 0 no. subjects (%)

Question: What about the Cogwheel rigidity [2] of the same compound?
Answer: 1 (3.7%) no. subjects (%)

Question: And the Contusion [2]?
Answer: 1 (3.7%) no. subjects (%)

Question: And the Depressed mood [2]?
Answer: 0 no. subjects (%)

Question: What about the Depression [2] of the same compound?
Answer: 1 (3.7%) no. subjects (%)

Question: What about the Diarrhea [2] of the same compound?
Answer: 1 (3.7%) no. subjects (%)

Question: What about the Dizziness [2] of the same compound?
Answer: 1 (3.7%) no. subjects (%)

Question: What about the Drug hypersensitivity [2] of the same compound?
Answer: 0 no. subjects (%)

Question: What about the Dry mouth [2] of the same compound?
Answer: 2 (7.4%) no. subjects (%)

Question: And the Dysgeusia [2]?
Answer: 1 (3.7%) no. subjects (%)

Question: And the “Ear and labyrinth disorders” value [2]?
Answer: 0 no. subjects (%)

Question: And the Ear infection [2]?
Answer: 1 (3.7%) no. subjects (%)

Question: And the Epistaxis [2]?
Answer: 1 (3.7%) no. subjects (%)

Question: And the Flank pain [2]?
Answer: 1 (3.7%) no. subjects (%)

Question: And the Folliculitis [2]?
Answer: 0 no. subjects (%)

Question: And the Gastrointestinal disorders [2]?
Answer: 6 (22.2%) no. subjects (%)

Question: And the Headache [2]?
Answer: 2 (7.4%) no. subjects (%)

Question: What about the Immune system disorders [2] of the same compound?
Answer: 0 no. subjects (%)

Question: What about the Infections and infestations [2] of the same compound?
Answer: 3 (11.1%) no. subjects (%)

Question: What about the Influenza [2] of the same compound?
Answer: 0 no. subjects (%)

Question: And the “Injury, poisoning and procedural complications” value [2]?
Answer: 2 (7.4%) no. subjects (%)

Question: What about the Insomnia [2] of the same compound?
Answer: 3 (11.1%) no. subjects (%)

Question: What about the Intentional self-injury [2] of the same compound?
Answer: 1 (3.7%) no. subjects (%)

Question: And the Loss of consciousness [2]?
Answer: 1 (3.7%) no. subjects (%)

Question: And the “Meniere's disease” value [2]?
Answer: 0 no. subjects (%)

Question: What about the “Metabolism and nutrition disorders” value [2] of the same compound?
Answer: 0 no. subjects (%)

Question: And the Migraine [2]?
Answer: 1 (3.7%) no. subjects (%)

Question: What about the “Musculoskeletal and connective tissue disorders” value [2] of the same compound?
Answer: 2 (7.4%) no. subjects (%)

Question: What about the Musculoskeletal chest pain [2] of the same compound?
Answer: 1 (3.7%) no. subjects (%)

Question: And the Musculoskeletal pain [2]?
Answer: 1 (3.7%) no. subjects (%)

Question: What about the Nasal congestion [2] of the same compound?
Answer: 1 (3.7%) no. subjects (%)

Question: What about the Nasopharyngitis [2] of the same compound?
Answer: 1 (3.7%) no. subjects (%)

Question: And the Nausea [2]?
Answer: 0 no. subjects (%)

Question: What about the Neck pain [2] of the same compound?
Answer: 1 (3.7%) no. subjects (%)

Question: What about the Nervous system disorders [2] of the same compound?
Answer: 6 (22.2%) no. subjects (%)

Question: And the Night sweats [2]?
Answer: 1 (3.7%) no. subjects (%)

Question: What about the Panic reaction [2] of the same compound?
Answer: 0 no. subjects (%)

Question: What about the Pelvic pain [2] of the same compound?
Answer: 1 (3.7%) no. subjects (%)

Question: What about the Pharyngitis [2] of the same compound?
Answer: 2 (7.4%) no. subjects (%)

Question: What about the Polydipsia [2] of the same compound?
Answer: 0 no. subjects (%)

Question: And the Procedural pain [2]?
Answer: 0 no. subjects (%)

Question: What about the Psychiatric disorders [2] of the same compound?
Answer: 5 (18.5%) no. subjects (%)

Question: What about the Rash [2] of the same compound?
Answer: 0 no. subjects (%)

Question: What about the “Renal and urinary disorders” value [2] of the same compound?
Answer: 0 no. subjects (%)

Question: What about the Renal failure [2] of the same compound?
Answer: 0 no. subjects (%)

Question: What about the “Reproductive system and breast disorders” value [2] of the same compound?
Answer: 1 (3.7%) no. subjects (%)

Question: And the “Respiratory, thoracic and mediastinal disorders” value [2]?
Answer: 2 (7.4%) no. subjects (%)

Question: And the Restlessness [2]?
Answer: 1 (3.7%) no. subjects (%)

Question: What about the Road traffic accident [2] of the same compound?
Answer: 1 (3.7%) no. subjects (%)

Question: What about the Sedation [2] of the same compound?
Answer: 1 (3.7%) no. subjects (%)

Question: And the Self-injurious ideation [2]?
Answer: 0 no. subjects (%)

Question: And the Sexual dysfunction [2]?
Answer: 0 no. subjects (%)

Question: And the “Skin and subcutaneous tissue disorders” value [2]?
Answer: 1 (3.7%) no. subjects (%)

Question: What about the Somnolence [2] of the same compound?
Answer: 0 no. subjects (%)

Question: What about the Suicidal ideation [2] of the same compound?
Answer: 1 (3.7%) no. subjects (%)

Question: And the Suicide attempt [2]?
Answer: 0 no. subjects (%)

Question: What about the Tooth impacted [2] of the same compound?
Answer: 0 no. subjects (%)

Question: What about the Toothache [2] of the same compound?
Answer: 0 no. subjects (%)

Question: And the “Total no. subjects with adverse events” value [2]?
Answer: 13 (48.1%) no. subjects (%)

Question: What about the Tremor [2] of the same compound?
Answer: 2 (7.4%) no. subjects (%)

Question: What about the “Upper respiratory tract infection” value [2] of the same compound?
Answer: 1 (3.7%) no. subjects (%)

Question: What about the “Viral upper respiratory tract infection” value [2] of the same compound?
Answer: 0 no. subjects (%)

Question: And the Vomiting [2]?
Answer: 1 (3.7%) no. subjects (%)

Question: And the Vulvovaginal mycotic infection [2]?
Answer: 1 (3.7%) no. subjects (%)

Question: And the “1 or more serious TEAE” value [3]?
Answer: 4 (11.4%) no. subjects (%)

Question: And the “TEAE (total no. subjects with TEAE)” value [3]?
Answer: 33 (94.3%) no. subjects (%)

Question: What about the “TEAE leading to death” value [3] of the same compound?
Answer: 0 no. subjects (%)

Question: What about the “TEAE leading to drug withdrawn” value [3] of the same compound?
Answer: 5 (14.3%) no. subjects (%)

Question: And the “Possibly related TEAE” value (double-blind phase, safety analysis set, relationship possible, probable, very likely)?
Answer: 29 (82.9%) no. subjects (%)

Question: What about the Cellulitis [4] of the same compound?
Answer: 0 no. subjects (%)

Question: And the Infections and infestations [4]?
Answer: 0 no. subjects (%)

Question: What about the Psychiatric disorders [4] of the same compound?
Answer: 1 (3.7%) no. subjects (%)

Question: And the Suicidal ideation [4]?
Answer: 1 (3.7%) no. subjects (%)

Question: And the Suicide attempt [4]?
Answer: 0 no. subjects (%)

Question: And the “Total no. subjects with a serious adverse event” value [4]?
Answer: 1 (3.7%) no. subjects (%)

Question: What about the Agitation [5] of the same compound?
Answer: 1 (2.9%) no. subjects (%)

Question: And the Depressive symptom [5]?
Answer: 1 (2.9%) no. subjects (%)

Question: What about the Psychiatric disorders [5] of the same compound?
Answer: 4 (11.4%) no. subjects (%)

Question: What about the Suicidal ideation [5] of the same compound?
Answer: 2 (5.7%) no. subjects (%)
